Each structure is given as a SMILES string. Values after ≈ are worked out from the molar mass of the structure shown. Active and inactive are the calls of the source. The rule behind the calls is not given here.

Experiment [1] deals with Staphylococcus aureus. Description: Antibacterial activity against Staphylococcus aureus ATCC 29213 at 100 ug/disk after 18 hrs by agar diffusion method. The experiment is classed as functional. The note with it: for zone of inhibition at 100 µg/disc: ATCC 29213, 18 h, read-out: IZ.
In a further experiment the test system is Proteus mirabilis. Description: Antibacterial activity against Proteus mirabilis SBUG 47 at 100 ug/disk after 18 hrs by agar diffusion method. The class given is functional. The note with it: for zone of inhibition at 100 µg/disc: read-out: IZ.
The test system of a further experiment is Pseudomonas aeruginosa. Nature of the experiment: Antibacterial activity against Pseudomonas aeruginosa ATCC 15442 at 100 ug/disk after 18 hrs by agar diffusion method. The class given is functional, organism-based.
In a further experiment the test system is Escherichia coli. Description: Antibacterial activity against sEscherichia coli SBUG 13 at 100 ug/disk after 18 hrs by agar diffusion method. The class given is functional. The conditions noted are these: for zone of inhibition at 100 µg/disc: read-out: IZ. In general terms: In agar diffusion tests the substance spreads into inoculated agar from a disc or well.

Experiment [2] relates to Staphylococcus aureus. Nature of the experiment: Antibacterial activity against Staphylococcus aureus after 18 hrs by broth microdilution method. The class given is functional. Background: Dilution methods test growth across graded concentrations, often in twofold steps.
For experiment [3], the system named is Micrococcus luteus. Description: Antibacterial activity against Micrococcus flavus SBUG 16 at 100 ug/disk after 48 hrs by agar diffusion method. The experiment is classed as functional. The conditions noted are these: for zone of inhibition at 100 µg/disc: read-out: IZ.
The test system of experiment [4] is Staphylococcus aureus. Nature of the experiment: Antibacterial activity against Staphylococcus aureus SG511 at 100 ug/disk after 18 hrs by agar diffusion method. The class given is functional. The conditions noted are these: for zone of inhibition at 100 µg/disc: read-out: IZ.
The test system of another experiment is Candida maltosa. Nature of the experiment: […] activity against Candida maltosa 100 ug/disk after 18 hrs by agar diffusion method. The experiment is classed as functional, organism-based.
Experiment [5] relates to Micrococcus luteus. Nature of the experiment: Antibacterial activity against Micrococcus flavus SBUG 16 after 18 hrs by broth microdilution method. The class given is functional.
Another experiment concerns Serratia marcescens. Nature of the experiment: Antibacterial activity against sSerratia marcescens SBUG 9 at 100 ug/disk after 18 hrs by agar diffusion method. The class given is functional. The note with it: for zone of inhibition at 100 µg/disc: read-out: IZ.
In experiment [6] the test system is Staphylococcus aureus. Description: Antibacterial activity against Staphylococcus aureus ATCC 6538 at 100 ug/disk after 18 hrs by agar diffusion method. The class given is functional. The conditions noted are these: for zone of inhibition at 100 µg/disc: ATCC 6538, 18 h, read-out: IZ.
The next experiment concerns Candida albicans. Description: […] activity against Candida albicans at 100 ug/disk after 18 hrs by agar diffusion method. The experiment is classed as functional, organism-based.
For a further experiment, the system named is Bacillus subtilis. Nature of the experiment: Antibacterial activity against Bacillus subtilis SBUG 14 at 100 ug/disk after 18 hrs by agar diffusion method. The experiment is classed as functional. The conditions noted are these: for zone of inhibition at 100 µg/disc: read-out: IZ.
Experiment [7] deals with Staphylococcus aureus. Description: Antibacterial activity against Staphylococcus aureus ATCC 25923 at 100 ug/disk after 18 hrs by agar diffusion method. The class given is functional. The conditions noted are these: for zone of inhibition at 100 µg/disc: ATCC 25923, 18 h, read-out: IZ.

In the case of `CC(C)=CCC/C(C)=C/CC/C(=C/Cc1cc(O)ccc1O)C(=O)O` [GANOMYCIN B], the zone of inhibition at 100 µg/disc with Staphylococcus aureus [1] stood at 18 mm; in the experiment on Proteus mirabilis, 15 mm; in the experiment on Escherichia coli it was 5 mm; with Micrococcus luteus [3], 26 mm; in the experiment on Staphylococcus aureus [4] it was 24 mm; with Serratia marcescens it was 16 mm. Besides, the zone of inhibition at 100 µg/disc with Staphylococcus aureus [6] came to 20 mm; in the experiment with Bacillus subtilis it was 15 mm; in the experiment with Staphylococcus aureus [7], 17 mm. The result in the experiment on Pseudomonas aeruginosa, in the experiment with Candida maltosa and in the experiment with Candida albicans was inactive. In addition, the MIC against Staphylococcus aureus [2] was determined as 25 µg/mL (≈ 72.6 µM); against Micrococcus luteus [5], 2.5 µg/mL (≈ 7.26 µM).

For `COC1=C(OC)C(=O)C(C/C=C(\C)CC/C=C(\C)CC/C=C(\C)CC/C=C(\C)CC/C=C(\C)CC/C=C(\C)CC/C=C(\C)CC/C=C(\C)CC/C=C(\C)CCC=C(C)C)=C(C)C1=O`, the result in the experiment on Staphylococcus aureus [1], in the experiment on Proteus mirabilis, in the experiment on Pseudomonas aeruginosa, in the experiment on Escherichia coli, in the experiment on Micrococcus luteus [3] and in the experiment on Staphylococcus aureus [4] was inactive. For the same compound, the result in the experiment with Serratia marcescens, in the experiment with Staphylococcus aureus [6], in the experiment with Bacillus subtilis and with Staphylococcus aureus [7] was inactive.

In the case of `CC1(C)S[C@@H]2[C@H](NC(=O)[C@H](N)c3ccccc3)C(=O)N2[C@H]1C(=O)O` [AMPICILLIN], the MIC in the experiment with Staphylococcus aureus [2] was determined as 0.05 µg/mL (≈ 0.143 µM); with Micrococcus luteus [5] it was 0.25 µg/mL (≈ 0.715 µM).

For `C/C(=C\CC/C(C)=C/CC/C(=C/Cc1cc(O)ccc1O)C(=O)O)CO` [GANOMYCIN A], the zone of inhibition at 100 µg/disc stood at 16 mm in the experiment on Staphylococcus aureus [1]; 15 mm with Proteus mirabilis; 4 mm with Escherichia coli; 25 mm in the experiment on Micrococcus luteus [3]; 24 mm with Staphylococcus aureus [4]; 15 mm in the experiment on Serratia marcescens. In addition, the zone of inhibition at 100 µg/disc in the experiment on Staphylococcus aureus [6] was determined as 19 mm; with Bacillus subtilis, 16 mm; in the experiment with Staphylococcus aureus [7] it was 15 mm. Also, the outcome with Pseudomonas aeruginosa, with Candida maltosa and in the experiment on Candida albicans was inactive. Also, the MIC with Staphylococcus aureus [2] is 25 µg/mL (≈ 69.4 µM); in the experiment on Micrococcus luteus [5] it was 2.5 µg/mL (≈ 6.94 µM).

One may read the MIC as the least concentration at which growth counts as inhibited. A high value points to weaker potency.
